pIC50: −log10 of the molar value. Read-outs that look alike come from different tables or passages of the source.
What was measured:
Format in all cases: biochemical
[1] = target: CDK2/Cyclin-A kinase complex (Homo sapiens, UniProt P24941); assay: CDK2 IMAP fluorescence polarization assay
Method in brief: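 Fluorescence polarization (IMAP) using purified active CDK2/Cyclin-A complex with a TAMRA-tagged Histone H1-derived peptide substrate; phosphorylated peptide bound by a metal-containing reagent raises polarization. Inhibition read as reduced fluorescence polarization signal.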

[2] = target: CDK4/Cyclin-D1 kinase complex (Homo sapiens, UniProt P11802); assay: CDK4 ELISA based assay, Rb Ser780 phosphorylation
CDK4/Cyclin-D1 kinase complex, sequence (P11802 whole entry): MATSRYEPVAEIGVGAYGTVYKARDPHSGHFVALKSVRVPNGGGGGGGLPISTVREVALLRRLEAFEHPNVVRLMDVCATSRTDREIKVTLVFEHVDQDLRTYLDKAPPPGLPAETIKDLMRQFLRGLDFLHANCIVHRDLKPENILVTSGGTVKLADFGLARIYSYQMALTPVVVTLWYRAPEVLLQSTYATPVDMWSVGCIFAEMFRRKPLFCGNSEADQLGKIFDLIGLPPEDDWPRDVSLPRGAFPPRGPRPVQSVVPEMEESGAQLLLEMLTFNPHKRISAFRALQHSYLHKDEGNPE
CDK4/Cyclin-D1 kinase complex, sequence (P24385 whole entry partner): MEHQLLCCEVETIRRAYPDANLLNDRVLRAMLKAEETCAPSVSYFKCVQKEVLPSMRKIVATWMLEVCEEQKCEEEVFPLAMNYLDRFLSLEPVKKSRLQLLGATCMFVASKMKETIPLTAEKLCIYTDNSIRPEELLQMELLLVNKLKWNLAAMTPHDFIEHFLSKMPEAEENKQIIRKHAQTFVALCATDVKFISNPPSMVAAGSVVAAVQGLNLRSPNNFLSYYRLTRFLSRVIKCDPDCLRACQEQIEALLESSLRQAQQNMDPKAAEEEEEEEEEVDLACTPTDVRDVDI
Text: The compounds that inhibit the CDK4 kinase activity would inhibit the signal output of the assay.

CDK4 = CDK4 (Homo sapiens, UniProt P11802); assay: CDK4 HTRF assay; details: Table E; read-out: CDK4 HTRF/IC50 [umol l − 1]
CDK4, sequence (P11802 whole entry): as the sequence (P11802 whole entry) above
CDK4, sequence (P24385 whole entry partner): as the sequence (P24385 whole entry partner) above

hCDK1/B = hCDK1/B (Homo sapiens, UniProt P06493); assay: hCDK1/B assay; details: Table E; read-out: hCDK1/B/IC50 [umol l − 1]
hCDK1/B, sequence (P06493 whole entry): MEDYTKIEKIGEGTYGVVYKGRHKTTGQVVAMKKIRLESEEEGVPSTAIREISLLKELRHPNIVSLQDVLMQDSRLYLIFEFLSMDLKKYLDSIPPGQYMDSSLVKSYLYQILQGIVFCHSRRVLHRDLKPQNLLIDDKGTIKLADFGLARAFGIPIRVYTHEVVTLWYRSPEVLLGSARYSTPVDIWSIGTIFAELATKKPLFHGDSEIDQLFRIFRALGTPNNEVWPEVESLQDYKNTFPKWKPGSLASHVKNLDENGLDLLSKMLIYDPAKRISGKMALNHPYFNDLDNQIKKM
hCDK1/B, sequence (P14635 whole entry partner): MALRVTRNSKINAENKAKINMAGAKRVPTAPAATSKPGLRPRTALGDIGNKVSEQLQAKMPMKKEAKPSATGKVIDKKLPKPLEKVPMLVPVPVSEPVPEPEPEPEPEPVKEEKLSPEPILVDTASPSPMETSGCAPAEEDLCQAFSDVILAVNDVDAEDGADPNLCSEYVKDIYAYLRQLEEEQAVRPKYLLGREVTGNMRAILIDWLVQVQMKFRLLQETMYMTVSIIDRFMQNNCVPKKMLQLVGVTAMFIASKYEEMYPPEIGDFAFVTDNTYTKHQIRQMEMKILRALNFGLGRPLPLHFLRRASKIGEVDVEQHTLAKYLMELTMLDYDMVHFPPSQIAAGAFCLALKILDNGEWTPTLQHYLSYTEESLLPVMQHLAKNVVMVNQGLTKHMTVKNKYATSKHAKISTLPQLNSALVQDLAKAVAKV

[3] = Table E, read-out: CDK2cyA IMAP/IC50 [umol l − 1]
[4] = Table E, read-out: CDK4 ELISA assay IC50 [umol l−]

Row | Structure (SMILES) | pIC50 (CDK4) | pIC50 [1, 3] | pIC50 [2, 4] | other results
1 | CCC(CC)N1C(=O)C(C)(C)c2cnc(Nc3ccc(N4CCN(C)CC4)cc3)nc21 [drawing 155] | – | – | – | pIC50 ([1]; Table C, read-out: CDK2 IC50): > 5.00; pIC50 ([2]; Table C, read-out: CDK4 IC50): > 5.00
2 | CCC(CC)n1c(C)cc2cnc(Nc3ccc(C(=O)NC4CCCC4)cc3)nc21 [Example 331] | – | > 6.00 | < 5.00 | –
3 | CCC(CC)N1C(=O)Cc2cnc(Nc3ccc(N4CCNCC4)cc3)nc21 | – | – | – | pIC50 ([2]; Table C, read-out: CDK4 IC50): > 5.00
4 | Cc1cc2cnc(Nc3ccc(N4CCNCC4)cc3)nc2n1C1CCCC1 [Example 430] | > 6.00 | > 6.00 | > 6.00 | –
5 | Cc1cn(C2CCCC2)c2nc(Nc3ccc(N4CCNCC4)cc3)ncc12 [drawing 150] | – | – | – | pIC50 ([2]; Table C, read-out: CDK4 IC50): > 5.00
6 | Cc1cn(C2CCCCC2)c2nc(Nc3ccc4[nH]ncc4c3)ncc12 [Example 280] | < 5.00 | < 5.00 | > 5.00 | –
7 | CC(=O)c1cn(C2CCCC2)c2nc(Nc3ccc(N4CCNCC4)cc3)ncc12 [Example 326, 1-[7-cyclopentyl-2-(4-piperazin-1-yl-phenylamino)-7H-pyrrolo[2,3-d]pyrimidin-5-yl]-ethanone] | 5.00 | – | < 5.00 | –
8 | CCC(CC)N1C(=O)Cc2cnc(Nc3ccc(N4CCNCC4)cn3)nc21 | – | – | – | pIC50 ([1]; Table C, read-out: CDK2 IC50): > 5.00; pIC50 ([2]; Table C, read-out: CDK4 IC50): < 5.00
9 | CCC(CC)n1ccc2cnc(Nc3cccc(OCCn4ccnc4)c3)nc21 [Example 213] | – | > 6.00 | > 5.00 | –
10 | c1cc2cn[nH]c2cc1Nc1ncc2ccn(C3CCCC3)c2n1 [Example 257] | – | > 5.00 | > 5.00 | –
11 | CCC(CC)N1C(=O)C(C)(C)c2cnc(Nc3ccc(N4CCN(C(C)=O)CC4)cn3)nc21 | – | – | – | pIC50 ([1]; Table C, read-out: CDK2 IC50): < 5.00; pIC50 ([2]; Table C, read-out: CDK4 IC50): < 5.00
12 | CCC(CC)n1cc(C)c2cnc(Nc3ccc(C(=O)NC4CCCC4)cc3)nc21 [Example 319] | – | – | < 5.00 | –
13 | CCC(CC)N1C(=O)C(C)(C)c2cnc(Nc3ccc(N4CCN(C(=O)OC(C)(C)C)CC4)cc3)nc21 | – | – | – | pIC50 ([2]; Table C, read-out: CDK4 IC50): < 5.00
14 | CCC(CC)n1c(C(=O)Nc2cccc(F)c2)cc2cnc(Nc3ccc(N4CCNCC4)cc3)nc21 [Example 357] | > 6.00 | > 5.00 | – | pIC50 (hCDK1/B): > 5.00
15 | CCC(CC)n1c(C(=O)Nc2cccc(C(F)(F)F)c2)cc2cnc(Nc3ccc(N4CCNCC4)cc3)nc21 [Example 350] | > 6.00 | < 4.82 | – | pIC50 (hCDK1/B): < 5.00
16 | CC1CCC(n2ccc3cnc(Nc4ccc(N5CCNCC5)cc4)nc32)C1 (stereo not drawn) [Example 239] | > 6.00 | > 5.00 | – | pIC50 (hCDK1/B): > 6.00

Row | Structure (SMILES) | pIC50 (CDK4) | pIC50 [1, 3] | pIC50 [2, 4] | other results
17 | Cc1cn(C2CCCC2)c2nc(Nc3ccncn3)ncc12 [Example 304] | < 5.00 | < 5.00 | – | pIC50 (hCDK1/B): < 5.00
18 | CCC(CC)N1C(=O)C(C)(C)c2cnc(Nc3ccc(N4CCNCC4)cn3)nc21 | – | – | – | pIC50 ([1]; Table C, read-out: CDK2 IC50): < 5.00; pIC50 ([2]; Table C, read-out: CDK4 IC50): > 5.00
19 | CCC(CC)N1C(=O)C(C)(C)c2cnc(Nc3ccc(N4CCNCC4)cc3)nc21 [drawing 162] | – | – | – | pIC50 ([2]; Table C, read-out: CDK4 IC50): > 5.00
20 | Cc1cn(C2CCCC2)c2nc(Nc3ccc(CCN4CCOCC4)cc3)ncc12 [Example 291] | > 6.00 | < 5.00 | – | pIC50 (hCDK1/B): > 5.00
21 | Cc1c(C#N)n(C2CCCC2)c2nc(Nc3ccc(N4CCNCC4)cn3)ncc12 [Example 393] | > 6.00 | > 5.00 | – | pIC50 (hCDK1/B): > 5.00
22 | OC[C@@H]1CCC(n2ccc3cnc(Nc4ccc(N5CCNCC5)cc4)nc32)C1 (stereo partly drawn) [Example 250] | > 6.00 | > 6.00 | – | pIC50 (hCDK1/B): > 6.00
23 | CCC(CC)n1c(C(=O)Nc2ccc(C)cc2)cc2cnc(Nc3ccc(N4CCNCC4)cc3)nc21 [Example 348] | > 6.00 | < 4.82 | – | pIC50 (hCDK1/B): < 4.82
24 | Cc1cn(C2CCC(O)C2)c2nc(Nc3ccc(CN4CCOCC4)cc3)ncc12 (stereo not drawn) [Example 315] | > 6.00 | > 6.00 | – | pIC50 (hCDK1/B): > 5.00
25 | CCC(CC)n1c(COC)cc2cnc(Nc3ccc(C(=O)NC4CCCC4)cc3)nc21 [Example 380] | – | – | < 5.00 | –
26 | CC(=O)c1c(C)c2cnc(Nc3ccc(N4CCNCC4)cn3)nc2n1C1CCCCCC1 [Example 389] | > 6.00 | > 5.00 | – | pIC50 (hCDK1/B): < 5.00
27 | Cc1cn(C2CCCC2)c2nc(Nc3ccc4[nH]c(=O)[nH]c4c3)ncc12 [Example 279] | > 6.00 | > 5.00 | – | pIC50 (hCDK1/B): > 5.00
28 | Cc1cn(C2CCCCC2)c2nc(Nc3ccc(N4CCN(C)CC4)cc3)ncc12 [Example 269] | – | < 5.00 | > 5.00 | –
29 | Cc1cn(C2CCCC2)c2nc(Nc3ccc(N4CCOCC4)cc3)ncc12 [Example 305] | < 5.00 | > 5.00 | – | pIC50 (hCDK1/B): > 5.00
30 | CCC(CC)n1c(C(=O)Nc2cc[nH]n2)cc2cnc(Nc3ccc(N4CCNCC4)cc3)nc21 [Example 356] | > 6.00 | > 5.00 | – | pIC50 (hCDK1/B): > 5.00
31 | CC1(C)C(=O)N(C2CCCC2)c2nc(Nc3ccc(N4CCNCC4)cn3)ncc21 | – | – | – | pIC50 ([2]; Table C, read-out: CDK4 IC50): > 5.00

More lines, main results first:

Row | pIC50 (CDK4) | pIC50 [1, 3] | pIC50 [2, 4] | Structure (SMILES) | other results
32 | < 5.00 | < 5.00 | 5.10 | CC(=O)N1CCN(c2ccc(Nc3ncc4c(C)cn(C5CC5)c4n3)cc2)CC1 [Example 275] | –
33 | – | > 6.00 | < 5.00 | CCC(CC)n1c(C)cc2cnc(Nc3ccc(N4CCN(C(C)=O)CC4)cc3)nc21 [Example 330] | –
34 | – | > 6.00 | < 5.00 | CCC(CC)n1c(CO)cc2cnc(Nc3ccc(N4CCN(C(C)=O)CC4)cc3)nc21 [Example 362, 1-(4-{4-[7-(1-Ethyl-propyl)-6-hydroxymethyl-7H-pyrrolo[2,3-d]pyrimidin-2-ylamino]-phenyl}-piperazin-1-yl)-ethanone] | –
35 | > 6.00 | > 5.00 | < 5.00 | CCC(CC)n1c(C=NOC)cc2cnc(Nc3ccc(N4CCN(C(C)=O)CC4)cc3)nc21 [Example 364] | –
36 | < 5.00 | – | < 5.00 | CCC(CC)n1c(COC)cc2cnc(Nc3ccc(N4CCN(C(=O)OC(C)(C)C)CC4)cc3)nc21 [Example 381] | –
37 | – | < 5.00 | > 5.00 | CCC(CC)n1ccc2cnc(Nc3ccc(C4CCN(C(C)=O)CC4)cc3)nc21 [Example 214] | –
38 | – | < 5.00 | < 5.00 | CCC(CC)n1ccc2cnc(Nc3ccc(N4CCN(C(C)=O)CC4)cn3)nc21 [Example 206] | –
39 | – | – | < 5.00 | CCC(CC)n1ccc2cnc(Nc3ccc(C4CCCN(C(=O)CC#N)C4)cc3)nc21 (stereo not drawn) [Example 215] | –
40 | < 5.00 | – | < 5.00 | CCC(C(=O)O)n1ccc2cnc(Nc3ccc(N4CCN(C(C)=O)CC4)cc3)nc21 (stereo not drawn) [Example 220] | –
41 | – | – | < 5.00 | CCC(CC)n1cc(C(=O)OC)c2cnc(Nc3ccc(N4CCN(C(C)=O)CC4)cc3)nc21 [Example 428] | –
42 | – | > 5.00 | > 5.00 | CCC(CC)n1ccc2cnc(Nc3ccc(C4CCCN(C(C)=O)C4)cc3)nc21 (stereo not drawn) [Example 216] | –
43 | – | < 5.00 | < 5.00 | CCOC(OCC)c1cc2cnc(Nc3ccc(N4CCN(C(C)=O)CC4)cc3)nc2n1C(CC)CC [Example 360, 1-(4-{4-[6-Diethoxymethyl-7-(1-ethyl-propyl)-7H-pyrrolo[2,3-d]pyrimidin-2-ylamino]-phenyl}-piperazin-1-yl)-ethanone] | –
44 | < 5.00 | – | < 5.00 | CCCC(C(=O)OCC)n1ccc2cnc(Nc3ccc(N4CCN(C(C)=O)CC4)cc3)nc21 (stereo not drawn) [Example 224] | –
45 | < 5.00 | – | < 5.00 | CC(C)(C)OC(=O)N1CCN(c2ccc(Nc3ncc4ccn(C5CCCC5)c4n3)cc2)CC1 [Example 427] | –
46 | – | > 5.00 | > 5.00 | CCC(CC)n1ccc2cnc(Nc3ccc(C4CCCNC4)cc3)nc21 (stereo not drawn) [Example 211] | –
47 | – | < 5.00 | < 5.00 | CCC(CC)n1cc(C)c2cnc(Nc3ccc(N4CCN(C)CC4)cc3)nc21 [Example 264] | –
48 | – | > 5.00 | > 5.00 | CCC(CC)n1ccc2cnc(Nc3ccc(N4CCN(C)CC4)c(F)c3)nc21 [Example 208] | –
49 | – | – | < 5.00 | CCC(CC)n1cc(C(=O)OC)c2cnc(Nc3ccc(N4CCNCC4)cc3)nc21 [Example 429] | –
50 | – | – | < 5.00 | CCC(CC)n1ccc2cnc(NC3CCCC3)nc21 [Example 210] | –
51 | – | < 5.00 | < 5.00 | CCC(CC)n1c(COC)cc2cnc(Nc3ccc(N4CCN(C(C)=O)CC4)cc3)nc21 [Example 379] | –
52 | – | – | < 5.00 | CCC(CC)n1ccc2cnc(NC3CC3)nc21 [Example 218] | –
53 | – | > 6.00 | < 5.00 | CCC(CC)n1c(C)cc2cnc(Nc3ccc(N4CCNCC4)cc3)nc21 [Example 329, [7-(1-Ethyl-propyl)-6-methyl-7H-pyrrolo[2,3-d]pyrimidin-2-yl]-(4-piperazin-1-yl-phenyl)-amine] | –
54 | – | – | < 5.00 | CCC(CC)n1ccc2cnc(Nc3ccc(C(=O)NC4CCCC4)cc3)nc21 [Example 217] | –
55 | > 6.00 | > 5.00 | – | CCC(CC)n1c(C(=O)NC)cc2cnc(Nc3ccc(N4CCNCC4)cc3)nc21 [Example 346] | pIC50 (hCDK1/B): > 5.00
56 | – | < 5.00 | < 5.00 | CN1CCN(c2ccc(Nc3ncc4ccn(C5CCCC5)c4n3)nc2)CC1 [Example 255] | –
57 | – | < 5.00 | < 5.00 | CCC(CC)n1cc(C)c2cnc(Nc3ccc(N4CCN(C(C)=O)CC4)cc3)nc21 [Example 263, 1-(4-{4-[7-(1-Ethyl-propyl)-5-methyl-7H-pyrrolo[2,3-d]pyrimidin-2-ylamino]-phenyl}-piperazin-1-yl)-ethanone] | –
58 | – | > 6.00 | > 5.00 | CCC(CC)n1ccc2cnc(Nc3ccc(C(=O)N4CCOCC4)cc3)nc21 [Example 212] | –
59 | – | < 5.00 | > 5.00 | CCC(CC)n1ccc2cnc(Nc3ccc(N4CCN(C)CC4)cn3)nc21 [Example 207] | –
